Results: patent US5432194A, “(4-alkoxypyran-4-yl) substituted arylalkylaryl-, aryalkenylaryl-, and aryalkynylarylurea inhibitors of 5-lipoxygenase” (Abbott Laboratories, priority 1994, dated 1995)
Counter-ions that a name gives are not always drawn.

Biological target: T1, 5-Lipoxygenase (Homo sapiens, UniProt P09917)
T1 construct: from tissue; host or cells: human heparinized whole blood
T1 sequence (P09917 1-674): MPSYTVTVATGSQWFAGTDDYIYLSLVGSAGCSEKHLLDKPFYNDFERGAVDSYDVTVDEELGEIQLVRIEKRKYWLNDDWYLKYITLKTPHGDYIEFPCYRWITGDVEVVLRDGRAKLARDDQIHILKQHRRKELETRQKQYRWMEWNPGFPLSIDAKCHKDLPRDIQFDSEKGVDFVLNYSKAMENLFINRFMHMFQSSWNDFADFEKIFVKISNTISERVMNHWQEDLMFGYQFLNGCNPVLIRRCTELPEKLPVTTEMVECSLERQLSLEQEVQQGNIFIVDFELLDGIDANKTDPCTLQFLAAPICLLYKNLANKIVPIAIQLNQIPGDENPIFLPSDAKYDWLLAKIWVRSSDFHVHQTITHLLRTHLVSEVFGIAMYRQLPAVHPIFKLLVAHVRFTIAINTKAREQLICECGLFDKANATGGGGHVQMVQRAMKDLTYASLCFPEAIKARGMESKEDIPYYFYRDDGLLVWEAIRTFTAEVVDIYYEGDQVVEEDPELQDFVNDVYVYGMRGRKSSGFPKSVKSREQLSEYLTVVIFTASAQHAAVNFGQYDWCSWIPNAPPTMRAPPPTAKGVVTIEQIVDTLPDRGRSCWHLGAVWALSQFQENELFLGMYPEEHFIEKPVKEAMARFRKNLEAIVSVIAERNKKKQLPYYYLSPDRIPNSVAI
Assay: Inhibition of calcium ionophore-induced LTB4 biosynthesis in human whole blood (5-lipoxygenase)
Type: cell-based
Details: for IC50: calcium ionophore A23187 8.3 μM, 15 min preincubation, 37° C., read-out: IC50 against 5-lipoxygenase from stimulated LTB4 formation in human whole blood; for inhibition at 0.1 µM: @ 0.10 μM
Procedure: Inhibition of leukotriene biosynthesis was evaluated in an assay, involving calcium ionophore-induced LTB4 biosynthesis expressed human whole blood. Human heparinized whole blood was preincubated with test compounds or vehicle for 15 min at 37° C. followed by calcium ionophore A23187 challenge (final concentration of 8.3 μM) and the reaction terminated after 30 min by adding two volumes of methanol containing prostaglandin B2 as an internal recovery standard. The methanol extract was analyzed for LTB4 using a commercially available radioimmunoassay.

[1] = A23187, read-out: Inhibition of stimulated LTB4 formation in human whole blood

COC1(c2cc(F)cc(OCc3ccc(CN4CCNC4=O)cc3)c2)CCOCC1 [Example 17, 4-{3-[4-(imidazolidin-2-on-1-ylmethyl)benzyloxy]-5-fluorophenyl}-4-methoxytetrahydropyran]
inhibition at 200 µM (@ 200 μM, A23187, read-out: Inhibition of stimulated LTB4 formation in human whole blood): 13%

COC1(c2cccc(Sc3ccc(N(C)C(=O)N4CCN(C)CC4)cc3)c2)CCOCC1 [Example 31, 4-{3-[4-(((4-methylpiperazinyl)carbonyl)-N-methylamino)phenylthio]phenyl}-4-methoxytetrahydropyran]
IC50: 0.07 µM

COC1(c2cccc(Sc3ccc(N(C)C(=O)N4CCOCC4)cc3)c2)CCOCC1 [Example 29, 4-{3-[4-((4-morpholinocarbonyl)-N-methylamino)phenylthio]phenyl}-4-methoxytetrahydropyran]
inhibition at 0.1 µM [1]: 94%

CNC(=O)N(C)c1ccc(Sc2cccc(C3(OC)CCOCC3)c2)cc1 [Example 28, 4-{3-[4-((N"-methylaminocarbonyl)-N-methylamino)phenylthio]phenyl}-4-methoxytetrahydropyran]
inhibition at 0.78 µM (@ 0.78 μM, A23187, read-out: Inhibition of stimulated LTB4 formation in human whole blood): 100%

COC1(c2cccc(Sc3ccc(N(C)C(=O)N4CCN(C)CC4)cc3)c2)CCOCC1 [Example 33, 4-{3-[4-(((4-methylpiperazinyl)carbonyl)-N-methylamino)phenylthio]phenyl}-4-methoxytetrahydropyran hydrochloride salt]
IC50: 0.08 µM

COC1(c2cccc([S+]([O-])c3ccc(N(C)C(=O)N(C)C)cc3)c2)CCOCC1 (stereo not shown) [Example 9, 4-{3-[4-((N',N'-dimethylaminocarbonyl)-N-methylamino)phenylsulfinyl]phenyl}-4-methoxytetrahydropyran]
inhibition at 0.1 µM [1]: 25%

C=CCN(C)C(=O)N(C)c1ccc(Sc2cccc(C3(OC)CCOCC3)c2)cc1 [Example 35, 4-{3-[4-(((N'-allyl-N'-methylamino)carbonyl)-N-methylamino)phenyl-thio]phenyl}-4-methoxytetrahydropyran]
IC50: 0.03 µM

COC1(c2cc(F)cc(OCc3ccc(CNC(=O)N(C)C)cc3)c2)CCOCC1 [Example 11, 4-{3-[4-((N',N'-dimethylaminocarbonyl)aminomethyl)benzyloxy]-5-fluorophenyl}-4-methoxytetrahydropyran]
IC50: 1.8 µM

COC1(c2cc(F)cc(OCc3ccc(N(C)C(=O)N(C)C)cc3)c2)CCOCC1 [Example 1, 4-{3-[4-((N',N'-dimethylaminocarbonyl)-N-methylamino)benzyloxy]-5-fluorophenyl}-4-methoxytetrahydropyran]
IC50: 0.017 µM

COC1(c2cccc(Sc3ccc(N(C)C(=O)N(C)C)cc3)c2)CCOCC1 [Example 8, 4-{3-[4-((N',N'-dimethylaminocarbonyl)-N-methylamino)phenylthio]phenyl}-4-methoxytetrahydropyran]
inhibition at 0.025 µM (@ 0.025 μM, A23187, read-out: Inhibition of stimulated LTB4 formation in human whole blood): 45%
